Results: patent US8633312B2, “Dibenzocycloheptatone derivatives and pharmaceutical agents containing said compounds” (c-a-i-r biosciences GmbH, priority 2008, dated 2014)

Assays:
p38 MAP kinase = p38 MAP kinase (Homo sapiens, UniProt Q16539); experiment: Inhibition of p38 MAP kinase, IC50 relative to SB-203580; assay type: biochemical; settings: relative activity = ratio IC50 (SB-203580)/IC50 (test compound); the higher the value, the more active
TNF-α = experiment: Inhibition of TNF-α release, IC50 relative to SB-203580; assay type: cell-based; settings: relative activity = ratio IC50 (SB-203580)/IC50 (test compound); the higher the value, the more active
Description: The action spectrum of the compounds as inhibitors of the release of TNF-α and IL-1β was investigated with the aid of the test systems as described by Donat C. and Laufer S. in Arch. Pharm. Pharm. Med. Chem. 333, Suppl. 1, 1-40, 2000. The IC50 values obtained were set in relation to the values for the compound SB-203580 of the formula
The numerical values given in the following table are therefore the relative activity, calculated from the ratio of IC50 (SB-203580)/IC50 (test compound). […] The compounds in which R1 represents H represent the prior art according to WO2006/120010.

Sequence of p38 MAP kinase (Q16539 whole entry): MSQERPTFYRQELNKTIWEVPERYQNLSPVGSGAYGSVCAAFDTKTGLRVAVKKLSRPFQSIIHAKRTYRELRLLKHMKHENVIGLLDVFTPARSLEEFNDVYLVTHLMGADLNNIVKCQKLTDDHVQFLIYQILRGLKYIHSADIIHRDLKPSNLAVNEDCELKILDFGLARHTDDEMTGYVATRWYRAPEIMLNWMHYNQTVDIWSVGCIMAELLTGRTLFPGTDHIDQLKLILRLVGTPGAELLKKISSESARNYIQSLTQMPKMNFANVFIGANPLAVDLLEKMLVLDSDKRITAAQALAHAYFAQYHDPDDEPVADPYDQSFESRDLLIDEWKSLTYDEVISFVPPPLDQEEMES

SMILES | p38 MAP kinase (p38 MAP kinase) | Inhibition of TNF-α (TNF-α) | melting point [°C]
O=C1c2ccc(Nc3ccc(F)cc3F)cc2CCc2ccc(OC3CCOCC3)cc21 [2-(2,4-Difluoroanilino)-7-(2-tetrahydropyran-4-yl-oxy)-10,11-dihydrodibenzo[a,d]-cyclohepten-5-one] | 0.74 | 1.98 | 
O=C1c2ccc(Nc3ccc(F)cc3F)cc2CCc2ccc(OCCCO)cc21 [2-(2,4-Difluoroanilino)-7-(3-hydroxy-propoxy)-10,11-dihydrodibenzo[a,d]-cyclohepten-5-one] | 4.85 | >5 | 
O=C1c2ccc(Nc3ccc(F)cc3F)cc2CCc2ccc(O)cc21 [2-(2,4-Difluoroanilino)-7-hydroxy-10,11-dihydrodibenzo[a,d]-cyclohepten-5-one] | 2.03 | 1.80 | 
COc1ccc2c(c1)C(=O)c1ccc(Nc3ccc(F)cc3F)cc1CC2 [2-(2,4-Difluoroanilino)-7-methoxydibenzosuberone] | 1.59 | 0.70 | 
O=C1c2ccc(Nc3ccc(F)cc3F)cc2CCc2cc(OCCO)ccc21 [2-(2,4-Difluorophenylamino)-8-(2-hydroxyethoxy)-10,11-dihydrodibenzo[a,d]-cyclohepten-5-one] | 2.60 |  | 
O=C1c2ccc(Nc3ccc(F)cc3F)cc2CCc2cc(OCCN3CCOCC3)ccc21 [2-(2,4-Difluorophenylamino)-8-(2-morpholin-4-yl-ethoxy)-10,11-dihydrodibenzo[a,d]cyclohepten-5-one] | 2.53 |  | 
COc1ccc2c(c1)CCc1cc(Nc3ccc(F)cc3F)ccc1C2=O [2-(2,4-Difluorophenylamino)-8-methoxy-10,11-dihydrodibenzo[a,d]cyclo-hepten-5-one] | 2.60 |  | 
COc1ccc2c(c1)C(=O)c1ccc(Nc3ccc(F)cc3N)cc1CC2 [2-(2-Amino-4-fluoroanilino)-7-methoxydibenzosuberone] | 0.92 | 0.73 | 
Nc1ccccc1Nc1ccc2c(c1)CCc1ccc(OC[C@@H](O)CO)cc1C2=O [2-(2-Aminoanilino)-7-[2S-,3-dihydroxypropoxy]-10,11-dihydrodibenzo[a,d]-cyclohepten-5-one] | 1.54 | >5 | 
COc1ccc2c(c1)C(=O)c1ccc(Nc3ccccc3N)cc1CC2 [2-(2-Aminoanilino)-7-methoxydibenzosuberone] | 1.00 | 0.91 | 
COc1ccc2c(c1)C(=O)c1ccc(Nc3ccccc3OC)cc1CC2 [2-(2-Methoxyanilino)-7-methoxydibenzosuberone] | 0.11 | 0.18 | 
CC1(C)OC[C@H](COc2ccc3c(c2)C(=O)c2ccc(Nc4ccccc4N)cc2CC3)O1 [2-(Aminoanilino)-7-(S-1,2-isopropylideneglycer-3-yl)-10,11-dihydrodibenzo[a,d]-cyclohepten-5-one] | 1.31 | >5 | 
Nc1ccc2c(c1)COc1cc(Nc3ccc(F)cc3N)ccc1C2=O [3-(2-Amino-4-fluorophenylamino)-8-amino-6H-dibenzo[b,e]oxepin-11-one] | 1.15 | 0.24 | 194.5
Nc1ccc2c(c1)COc1cc(Nc3ccccc3N)ccc1C2=O [3-(2-Aminophenylamino)-8-amino-6H-dibenzo[b,e]oxepin-11-one] | 0.93 |  | 203.9
O=C1c2ccc(Nc3ccc(F)cc3F)cc2CCc2c(OCCN3CCOCC3)cccc21 [8-(2,4-Difluorophenylamino)-1-(2-morpholin-4-yl-ethoxy)-10,11-dihydrodibenzo[a,d]cyclo-hepten-5-one] | 1.26 |  | 
O=C1c2ccc(Nc3ccc(F)cc3F)cc2CCc2c(O)cccc21 [8-(2,4-Difluorophenylamino)-1-hydroxy-10,11-dihydrodibenzo[a,d]cyclohepten-5-one] | 2.26 | 0.06 | 
COc1ccccc1Nc1ccc2c(c1)OCc1cc(N)ccc1C2=O [8-Amino-3-(2-methoxyphenylamino)-6H-dibenzo[b,e]oxepin-11-one] | 0.14 | 0.04 | 68.4
O=C1c2ccc(Nc3ccc(F)cc3F)cc2CCc2c(OC[C@H](O)CO)cccc21 [(R)-8-(2,4-Difluorophenylamino)-1-(2,3-dihydroxypropoxy)-10,11-dihydrodibenzo-[a,d]cyclohepten-5-one] | 1.76 |  | 
Nc1ccc2c(c1)COc1cc(Nc3ccc(F)cc3F)ccc1C2=O [Example 82, 3-(2,4-Difluorophenylamino)-8-amino-6H-dibenzo[b,e]oxepin-11-one] |  |  | 184 to 193
Nc1ccc2c(c1)COc1cc(Nc3ccc(C(F)(F)F)cc3N)ccc1C2=O [Example 92, 8-Amino-3-(2-amino-4-trifluoromethylphenylamino)-6H-dibenzo[b,e]oxepin-11-one] |  |  | 93.9
O=C1c2ccc(-n3cnnn3)cc2COc2cc(Nc3ccc(F)cc3F)ccc21 [Example 95, 3-(2,4-Difluorophenylamino)-8-tetrazol-1-yl-6H-dibenzo[b,e]oxepin-11-one] |  |  | 59
O=C1c2ccc(NC(=O)N3CCOCC3)cc2COc2cc(Nc3ccc(F)cc3F)ccc21 [Morpholine-4-carboxylic acid [3-(2,4-difluorophenylamino)-1-oxo-6,11-dihydrodibenzo[b,e]oxepin-8-yl]amide] | 0.51 |  | 244.3
